Reference: patent US10202415B1, “Method of synthesizing of 3-oxolupenal nanoparticles” (KING SAUD UNIVERSITY, priority 2017, dated 2019)

Experiments:
Test in all cases: Antimicrobial activity, agar diffusion technique
Format in all cases: cell-based
[1] = system: Geotricum candidum (RCMB 05097)
[2] = system: Absidia corymbifera (RCMB 02564)
[3] = system: Candida albicans (RCMB 05036)
[4] = system: Streptococcus pyogenes (RCMB 010015)
[5] = system: Staphylococcus aureus (RCMB 010027)
[6] = system: Staphylococcus epidermidis (RCMB 010024)
[7] = system: Salmonella enteritidis(RCMB 010084)
[8] = system: Proteous vulgaris (RCMB 010085)
[9] = system: Klebsiella pneumoniae (RCMB 0010093)

## C[C@@H]1[C@H](O)[C@@H](C)/C=C/C=C/C=C/C=C/C=C/C=C/C=C/[C@H](O[C@@H]2O[C@H](C)[C@@H](O)[C@H](N)[C@@H]2O)C[C@@H]2O[C@](O)(C[C@@H](O)C[C@@H](O)[C@H](O)CC[C@@H](O)C[C@@H](O)CC(=O)O[C@H]1C)C[C@H](O)[C@H]2C(=O)O [Amphotericin B]
[1]
  Zone of Inhibition (±S.D.): 27.0 ± 0.20
[2]
  Zone of Inhibition (±S.D.): 23.0 ± 0.10
[3]
  Zone of Inhibition (±S.D.): 25.7 ± 0.10

## CC1(C)S[C@@H]2[C@H](NC(=O)[C@H](N)c3ccccc3)C(=O)N2[C@H]1C(=O)O [Ampicillin]
[4]
  Zone of Inhibition (±S.D.): 26.3 ± 0.34
[5]
  Zone of Inhibition (±S.D.): 27.3 ± 0.14
[6]
  Zone of Inhibition (±S.D.): 25.0 ± 0.18

## Gentamycin
[7]
  Zone of Inhibition (±S.D.): 25.2 ± 0.18
[8]
  Zone of Inhibition (±S.D.): 23.4 ± 0.30
[9]
  Zone of Inhibition (±S.D.): 26.4 ± 0.15
